Test results taken from ChEMBL document CHEMBL3351924, “Detailed analysis and follow-up studies of a high-throughput screening for indoleamine 2,3-dioxygenase 1 (IDO1) inhibitors” (Eur J Med Chem, 2014).
Values after ≈ are worked out from the molar mass of the structure shown.

Legend:
[1] = molecular target: T1, Indoleamine 2,3-dioxygenase 1 (Homo sapiens, UniProt P14902); assay: Inhibition of IDO1 (unknown origin) using L-tryptophan substrate incubated for 60 mins in presence of 0.01% Triton-X by HPLC; conditions: read-out: IC50
T1 sequence (P14902 whole entry): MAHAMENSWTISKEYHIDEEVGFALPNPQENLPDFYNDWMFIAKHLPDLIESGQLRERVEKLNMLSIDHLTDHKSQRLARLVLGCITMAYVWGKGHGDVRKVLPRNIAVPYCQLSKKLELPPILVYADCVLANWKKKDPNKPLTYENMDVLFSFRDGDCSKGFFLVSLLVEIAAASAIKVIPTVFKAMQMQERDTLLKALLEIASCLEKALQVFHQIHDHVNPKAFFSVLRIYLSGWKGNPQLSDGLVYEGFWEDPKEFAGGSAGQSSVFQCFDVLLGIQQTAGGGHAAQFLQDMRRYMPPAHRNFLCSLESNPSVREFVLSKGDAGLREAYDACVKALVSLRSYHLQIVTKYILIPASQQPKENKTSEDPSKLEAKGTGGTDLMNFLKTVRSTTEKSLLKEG

[2] = molecular target: T1, Indoleamine 2,3-dioxygenase 1; assay: Inhibition of IDO1 (unknown origin) using L-tryptophan substrate incubated for 60 mins in presence of 5 mM GSH by HPLC
[3] = molecular target: Tryptophan 2,3-dioxygenase (Mus musculus, UniProt P48776); assay: Inhibition of mouse TDO expressed in mouse P815B cells using L-tryptophan substrate incubated for 24 hrs by HPLC based cellular assay; format: cell-based
Chain of Tryptophan 2,3-dioxygenase (P48776 whole entry): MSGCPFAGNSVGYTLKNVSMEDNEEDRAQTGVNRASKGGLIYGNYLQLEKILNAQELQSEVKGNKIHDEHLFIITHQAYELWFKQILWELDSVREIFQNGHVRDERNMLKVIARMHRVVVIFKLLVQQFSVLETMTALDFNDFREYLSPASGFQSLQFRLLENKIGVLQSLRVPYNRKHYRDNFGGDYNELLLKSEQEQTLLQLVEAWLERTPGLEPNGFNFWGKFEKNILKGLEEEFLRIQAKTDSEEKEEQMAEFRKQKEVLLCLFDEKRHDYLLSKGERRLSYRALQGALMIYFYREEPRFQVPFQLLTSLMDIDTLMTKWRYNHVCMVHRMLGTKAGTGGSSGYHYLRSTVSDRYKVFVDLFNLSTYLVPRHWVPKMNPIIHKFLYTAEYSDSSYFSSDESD

[4] = molecular target: T1, Indoleamine 2,3-dioxygenase 1; assay: Inhibition of IDO1 (unknown origin) using L-tryptophan substrate incubated for 60 mins by HPLC; conditions: read-out: IC50
[5] = molecular target: Indoleamine 2,3-dioxygenase 1 (Mus musculus, UniProt P28776); assay: Inhibition of mouse IDO1 expressed in mouse P815B cells using L-tryptophan substrate incubated for 18 hrs by HPLC based cellular assay; format: cell-based
Chain of Indoleamine 2,3-dioxygenase 1 (Mus musculus, UniProt P28776) (P28776 whole entry): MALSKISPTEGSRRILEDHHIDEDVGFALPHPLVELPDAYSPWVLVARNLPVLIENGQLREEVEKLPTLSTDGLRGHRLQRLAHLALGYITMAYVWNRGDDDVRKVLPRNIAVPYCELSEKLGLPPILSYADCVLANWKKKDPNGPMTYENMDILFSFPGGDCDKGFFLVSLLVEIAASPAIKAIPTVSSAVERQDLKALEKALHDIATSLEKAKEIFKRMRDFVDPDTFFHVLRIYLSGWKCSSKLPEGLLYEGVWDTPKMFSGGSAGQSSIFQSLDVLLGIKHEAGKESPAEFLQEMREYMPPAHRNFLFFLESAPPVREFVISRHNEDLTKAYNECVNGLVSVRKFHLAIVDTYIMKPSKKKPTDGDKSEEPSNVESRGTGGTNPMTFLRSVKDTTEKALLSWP

[6] = Solubility of the compound in pH 6.5 phosphate buffer containing 5% DMSO; conditions: phosphate buffer containing 5% DMSO
[7] = Cytotoxicity against mouse P815B cells after 24 hrs by MTS/PMS assay; conditions: P815B cells

What does the source list for `CCOC(=O)c1ccc(-n2sccc2=O)cc1`?
IC50 [1]: 11 µM; IC50 [2]: 100 µM; IC50 ([3]; p815b): Not Active; IC50 [4]: 15 µM; IC50 ([5]; p815b): Not Active; solubility [6]: 500 µM (≈ 125 µg/mL); CC50 at 24 h [7]: 10 µM

For `Cc1ccc(-n2nnnc2C/C=N/Nc2ccc(Cl)cc2)cc1`, which IC50 [1] is on record?
Its IC50 is 53 µM.

What about the IC50 [2] of the same compound?
The IC50 was 31 µM.

And the IC50 ([3]; read-out: IC50)?
The IC50 was 4.2 µM.

And the IC50 [4]?
Its IC50 is 54 µM.

And the IC50 ([5]; read-out: IC50)?
The IC50 was 340 nM.

What about the solubility [6] of the same compound?
The solubility was 12.5 µM (≈ 4.08 µg/mL).

What about the CC50 at 24 h [7] of the same compound?
The CC50 at 24 h was 10 µM.
